Measurements as given in US8486939B2, “Pyrimidinyl and 1,3,5-triazinyl benzimidazoles and their use in cancer therapy” (Pathway Therapeutics Inc., priority 2009, dated 2013).

Key:
NZOV9 = assay: Cellular growth inhibition (3H-thymidine incorporation); format: cell-based; conditions: Homo sapiens, five days incubation, 3H-thymidine over the last 6 hrs, read-out: Cell IC50* NZOV9
Procedure: (§1) The compounds were evaluated against two early passage human cell lines NZB5 and NZOV9 (Marshall et al., Oncol. Res. 2004, 14, 297). The cells were grown in ITS medium (α-modified minimal essential medium supplemented insulin, transferrin, selenite, and 5% fetal bovine serum) and grown on 96-well tissue culture plates under an atmosphere of 5% O2, 5% CO2, and 90% N2. Individual wells contained 500-1,000 cells (depending on the growth rate) in a volume of 150 μL. Compounds were added at 10-fold concentration steps to a maximum of 20 μM and plates were incubated for five days, with ^3H-thymidine being added over the last 6 hrs. Cells were harvested and incorporated radioactivity measured. Duplicate samples were analyzed for each compound dose with multiple control samples. Data were fitted by a least-squares method to an exponential of the form y=y0+ae^−bx, where y is the radioactivity (corrected for background and normalized to 100% of the control), x is the […], and y0, a, and b are variables, and the IC50 value defined as the compound concentration reducing ^3H-thymidine levels by 50%.

NZB5 = assay: as above; format: cell-based; conditions: Homo sapiens, five days incubation, 3H-thymidine over the last 6 hrs, read-out: Cell IC50* NZB5
Procedure: as §1

p110δ/p85 = p110δ/p85 (Homo sapiens, UniProt O00329); assay: Inhibition of isolated enzyme (lipid kinase assay, [γ33P]ATP, TLC); format: biochemical; conditions: recombinant enzyme, 100 μM ATP, 1 hr room temperature, average of two experiments
Summary of the method: (§2)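 Each recombinant p110/p85 enzyme (0.1 μg) was incubated with 10 μg L-α-phosphatidylinositol in Tris-HCl pH 7.4 buffer with NaCl and EDTA, 1% final DMSO, and was started with ATP mix (100 μM ATP, 5 mM MgCl2, [γ33P]ATP). Reactions ran 1 h at room temperature, and the lipids were extracted, TLC-separated and phosphorimaged. IC50 came from nine concentrations and is the mean of two experiments.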

p110α/p85 = p110α/p85 (Homo sapiens, UniProt P42336); assay: as above; format: biochemical; conditions: recombinant enzyme, 100 μM ATP, 1 hr room temperature, average of two experiments
Summary of the method: as §2

p110β/p85 = p110β/p85 (Homo sapiens, UniProt P42338); assay: as above; format: biochemical; conditions: recombinant enzyme, 100 μM ATP, 1 hr room temperature, average of two experiments
Summary of the method: as §2

PI3K = conditions: background, literature; cited from earlier work
human tumor xenografts = conditions: mice with human tumor xenografts; cited from earlier work

Sequence of p110β/p85 (P42338 whole entry, species assumed): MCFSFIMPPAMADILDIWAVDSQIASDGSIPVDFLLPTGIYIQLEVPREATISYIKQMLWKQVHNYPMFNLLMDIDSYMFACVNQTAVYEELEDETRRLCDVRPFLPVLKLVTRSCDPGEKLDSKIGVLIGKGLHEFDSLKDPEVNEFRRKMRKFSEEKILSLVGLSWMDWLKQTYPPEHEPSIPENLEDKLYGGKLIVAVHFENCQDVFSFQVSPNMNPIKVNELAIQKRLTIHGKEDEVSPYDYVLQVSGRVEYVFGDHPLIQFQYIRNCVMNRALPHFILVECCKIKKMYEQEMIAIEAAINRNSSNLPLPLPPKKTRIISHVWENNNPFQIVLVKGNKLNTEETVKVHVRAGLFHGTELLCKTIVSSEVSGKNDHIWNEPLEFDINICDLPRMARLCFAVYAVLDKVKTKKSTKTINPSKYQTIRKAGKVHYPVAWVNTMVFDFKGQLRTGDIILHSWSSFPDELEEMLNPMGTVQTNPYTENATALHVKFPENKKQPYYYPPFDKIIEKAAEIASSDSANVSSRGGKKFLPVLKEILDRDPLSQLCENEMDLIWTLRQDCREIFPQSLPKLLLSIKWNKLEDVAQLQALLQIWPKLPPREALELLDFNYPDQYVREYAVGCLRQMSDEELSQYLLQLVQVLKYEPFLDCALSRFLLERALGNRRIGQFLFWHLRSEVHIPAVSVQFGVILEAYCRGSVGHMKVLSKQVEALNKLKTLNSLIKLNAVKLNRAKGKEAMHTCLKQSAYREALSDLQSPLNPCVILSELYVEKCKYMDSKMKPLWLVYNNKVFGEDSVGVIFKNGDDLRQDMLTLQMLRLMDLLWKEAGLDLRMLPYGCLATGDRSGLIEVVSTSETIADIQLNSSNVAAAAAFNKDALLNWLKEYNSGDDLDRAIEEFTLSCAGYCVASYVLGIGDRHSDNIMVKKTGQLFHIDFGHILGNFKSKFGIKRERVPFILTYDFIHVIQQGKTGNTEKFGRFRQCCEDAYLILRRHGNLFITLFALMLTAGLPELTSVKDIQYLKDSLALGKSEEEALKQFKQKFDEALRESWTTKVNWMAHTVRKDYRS
Sequence of p110β/p85 (P27986 whole entry partner, species assumed): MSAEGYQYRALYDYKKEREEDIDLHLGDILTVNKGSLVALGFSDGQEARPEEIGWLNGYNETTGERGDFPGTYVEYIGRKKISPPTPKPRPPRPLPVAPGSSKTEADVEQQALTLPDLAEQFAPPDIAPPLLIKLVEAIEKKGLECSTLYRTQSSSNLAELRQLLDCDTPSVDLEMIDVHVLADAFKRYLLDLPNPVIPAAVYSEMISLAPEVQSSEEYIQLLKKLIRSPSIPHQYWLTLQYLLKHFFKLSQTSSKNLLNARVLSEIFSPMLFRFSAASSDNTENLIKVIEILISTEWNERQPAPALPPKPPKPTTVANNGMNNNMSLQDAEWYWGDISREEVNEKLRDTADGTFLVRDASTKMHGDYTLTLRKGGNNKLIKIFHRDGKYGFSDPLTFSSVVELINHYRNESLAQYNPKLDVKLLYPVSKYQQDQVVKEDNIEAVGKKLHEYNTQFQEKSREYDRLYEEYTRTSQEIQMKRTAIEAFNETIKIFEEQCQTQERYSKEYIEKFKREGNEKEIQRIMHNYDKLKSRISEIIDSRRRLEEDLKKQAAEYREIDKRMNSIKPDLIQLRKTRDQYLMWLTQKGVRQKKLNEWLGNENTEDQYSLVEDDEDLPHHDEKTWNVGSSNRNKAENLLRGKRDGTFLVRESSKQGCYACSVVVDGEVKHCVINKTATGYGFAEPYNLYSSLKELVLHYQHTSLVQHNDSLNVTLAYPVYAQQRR
Sequence of p110α/p85 (P42336 whole entry): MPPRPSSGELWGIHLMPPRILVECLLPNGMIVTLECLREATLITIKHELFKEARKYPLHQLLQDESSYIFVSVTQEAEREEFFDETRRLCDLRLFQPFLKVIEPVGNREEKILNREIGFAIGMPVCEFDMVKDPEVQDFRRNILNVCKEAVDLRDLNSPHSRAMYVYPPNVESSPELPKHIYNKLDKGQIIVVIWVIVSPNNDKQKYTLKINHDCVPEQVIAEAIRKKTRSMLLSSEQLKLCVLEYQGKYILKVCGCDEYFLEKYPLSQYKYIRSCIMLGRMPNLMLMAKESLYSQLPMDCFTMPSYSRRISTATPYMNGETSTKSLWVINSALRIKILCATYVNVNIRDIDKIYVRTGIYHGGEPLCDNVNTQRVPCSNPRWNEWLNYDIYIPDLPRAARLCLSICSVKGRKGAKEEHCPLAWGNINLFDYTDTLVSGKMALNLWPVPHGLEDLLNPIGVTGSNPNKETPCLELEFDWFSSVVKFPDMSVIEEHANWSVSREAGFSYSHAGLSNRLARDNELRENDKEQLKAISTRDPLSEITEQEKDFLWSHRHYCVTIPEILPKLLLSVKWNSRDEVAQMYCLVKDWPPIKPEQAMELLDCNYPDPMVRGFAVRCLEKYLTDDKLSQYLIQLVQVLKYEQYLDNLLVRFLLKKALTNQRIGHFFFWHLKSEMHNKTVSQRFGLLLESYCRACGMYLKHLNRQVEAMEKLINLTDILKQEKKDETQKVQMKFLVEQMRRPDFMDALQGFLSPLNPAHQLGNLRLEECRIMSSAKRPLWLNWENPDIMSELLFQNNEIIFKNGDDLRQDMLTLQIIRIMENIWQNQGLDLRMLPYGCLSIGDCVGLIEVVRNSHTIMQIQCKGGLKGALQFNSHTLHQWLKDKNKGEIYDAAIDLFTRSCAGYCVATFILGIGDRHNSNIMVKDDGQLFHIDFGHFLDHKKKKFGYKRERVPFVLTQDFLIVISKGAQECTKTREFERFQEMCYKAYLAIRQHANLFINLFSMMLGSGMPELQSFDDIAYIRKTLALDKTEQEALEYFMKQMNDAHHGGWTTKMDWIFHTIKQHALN
Sequence of p110α/p85 (P27986 whole entry partner): as the sequence (P27986 whole entry partner, species assumed) above
Sequence of p110δ/p85 (O00329 whole entry, species assumed): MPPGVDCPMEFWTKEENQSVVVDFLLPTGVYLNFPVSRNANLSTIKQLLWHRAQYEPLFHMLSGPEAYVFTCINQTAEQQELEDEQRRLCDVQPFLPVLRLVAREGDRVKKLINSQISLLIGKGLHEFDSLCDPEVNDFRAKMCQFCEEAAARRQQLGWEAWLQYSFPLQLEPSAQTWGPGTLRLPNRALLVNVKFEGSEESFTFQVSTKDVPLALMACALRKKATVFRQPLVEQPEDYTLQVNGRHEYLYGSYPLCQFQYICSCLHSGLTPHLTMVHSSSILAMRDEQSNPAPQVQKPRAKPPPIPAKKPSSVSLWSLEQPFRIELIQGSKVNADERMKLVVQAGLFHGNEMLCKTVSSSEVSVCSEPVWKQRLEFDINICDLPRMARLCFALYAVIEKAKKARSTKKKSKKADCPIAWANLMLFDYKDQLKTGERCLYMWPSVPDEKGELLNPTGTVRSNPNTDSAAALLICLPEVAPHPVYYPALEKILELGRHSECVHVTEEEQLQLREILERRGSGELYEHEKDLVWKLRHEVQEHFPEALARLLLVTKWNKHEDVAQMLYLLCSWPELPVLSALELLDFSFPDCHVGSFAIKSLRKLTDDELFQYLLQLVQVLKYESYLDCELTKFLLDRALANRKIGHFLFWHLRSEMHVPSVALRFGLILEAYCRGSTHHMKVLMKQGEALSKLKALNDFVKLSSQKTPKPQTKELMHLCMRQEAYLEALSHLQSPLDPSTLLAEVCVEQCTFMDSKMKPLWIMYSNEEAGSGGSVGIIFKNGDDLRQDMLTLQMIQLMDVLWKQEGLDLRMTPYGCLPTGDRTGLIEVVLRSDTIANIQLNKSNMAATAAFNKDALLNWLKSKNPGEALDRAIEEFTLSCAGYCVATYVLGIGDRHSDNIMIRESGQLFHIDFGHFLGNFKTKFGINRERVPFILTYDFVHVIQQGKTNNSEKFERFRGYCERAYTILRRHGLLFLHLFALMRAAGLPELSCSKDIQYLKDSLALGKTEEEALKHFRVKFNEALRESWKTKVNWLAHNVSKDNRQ
Sequence of p110δ/p85 (P27986 whole entry partner, species assumed): as the sequence (P27986 whole entry partner, species assumed) above

melting point [°C]	IC50 (p110δ/p85) [nM]	IC50 (p110α/p85) [nM]	IC50 (p110β/p85) [nM]	SMILES	IC50 (NZOV9) [nM]	IC50 (NZB5) [nM]	PI3K isoform selectivity (PI3K)	tolerability (human tumor xenografts)
293 to 295	< 100	< 100	100 to 1000	COc1cccc2c1nc(C(F)F)n2-c1nc(Nc2cncnc2)nc(N2CCOCC2)n1 [Example 31, 4-[2-(difluoromethyl)-4-methoxy-1H-benzimidazol-1-yl]-6-(4-morpholinyl)-N-(5-pyrimidinyl)-1,3,5-triazin-2-amine]	< 100	< 100		
256 to 259	< 100	< 100	100 to 1000	COc1cc(Nc2nc(N3CCOCC3)nc(-n3c(C(F)F)nc4c(OC)cccc43)n2)ncn1 [Example 32, 4-(2-(difluoromethyl)-4-methoxy-1H-benzimidazol-1-yl)-N-(6-methoxypyrimidin-4-yl)-6-morpholino-1,3,5-triazin-2-amine]	< 100	> 10000		
261 to 263	< 100	< 100	100 to 1000	COc1cccc2c1nc(C(F)F)n2-c1nc(Nc2cccnn2)nc(N2CCOCC2)n1 [Example 33, 4-[2-(difluoromethyl)-4-methoxy-1H-benzimidazol-1-yl]-6-(4-morpholinyl)-N-(3-pyridazinyl)-1,3,5-triazin-2-amine]	< 100	100 to 1000		
256 to 259	< 100	< 100	100 to 1000	COc1ccc(Nc2nc(N3CCOCC3)nc(-n3c(C(F)F)nc4c(OC)cccc43)n2)nn1 [Example 34, 4-[2-(difluoromethyl)-4-methoxy-1H-benzimidazol-1-yl]-N-(6-methoxy-3-pyridazinyl)-6-(4-morpholinyl)-1,3,5-triazin-2-amine]	100 to 1000	100 to 1000		
234 to 236	< 100	< 100	100 to 1000	COc1cccc2c1nc(C(F)F)n2-c1nc(Nc2ccncn2)nc(N2CCOCC2)n1 [Example 36, 4-[2-(difluoromethyl)-4-methoxy-1H-benzimidazol-1-yl]-6-(4-morpholinyl)-N-(4-pyrimidinyl)-1,3,5-triazin-2-amine]	< 100	< 100		
267 to 270	< 100	< 100	100 to 1000	COc1cccc2c1nc(C(F)F)n2-c1nc(Nc2ccc(N)nc2)nc(N2CCOCC2)n1 [Example 37, N^5-[4-[2-(difluoromethyl)-4-methoxy-1H-benzimidazol-1-yl]-6-(4-morpholinyl)-1,3,5-triazin-2-yl]-2,5-pyridinediamine]	< 100	< 100		
218 to 221	< 100	< 100	100 to 1000	CNc1ccc(Nc2nc(N3CCOCC3)nc(-n3c(C(F)F)nc4c(OC)cccc43)n2)cn1 [Example 38, N^5-[4-[2-(difluoromethyl)-4-methoxy-1H-benzimidazol-1-yl]-6-(4-morpholinyl)-1,3,5-triazin-2-yl]-N^2-methyl-2,5-pyridinediamine]	< 100	< 100		
136 to 137	< 100	< 100	100 to 1000	COc1cccc2c1nc(C(F)F)n2-c1nc(Nc2ccc(N(C)C)nc2)nc(N2CCOCC2)n1 [Example 39, N^5-[4-[2-(difluoromethyl)-4-methoxy-1H-benzimidazol-1-yl]-6-(4-morpholinyl)-1,3,5-triazin-2-yl]-N^2,N^2-dimethyl-2,5-pyridinediamine]	< 100	< 100		
199 to 201	< 100	< 100	100 to 1000	FC(F)c1nc2ccccc2n1-c1nc(-c2cccnc2)nc(N2CCOCC2)n1 [Example 47, 2-(difluoromethyl)-1-[4-(4-morpholinyl)-6-(3-pyridinyl)-1,3,5-triazin-2-yl]-1H-benzimidazole]	100 to 1000	100 to 1000		
				Cc1ccccc1-n1c(Cn2cnc3c(N)ncnc32)nc2cccc(C)c2c1=O [IC87114]			δ-selective	
				O=c1cc(N2CCOCC2)oc2c(-c3ccccc3)cccc12 [LY294002]				well-tolerated
				Oc1cccc(-c2nc(N3CCOCC3)c3oc4ncccc4c3n2)c1 [PI103]			slightly α-selective	
				Cc1cc(C(C)Nc2ccccc2)c2nc(N3CCOCC3)cc(=O)n2c1 (centres unmarked) [TGX221]			β-selective	
				FC(F)c1nc2ccccc2n1-c1nc(N2CCOCC2)nc(N2CCOCC2)n1 [ZSTK474]			non-selective	
